Reference: patent US20230285261A1, “FRAGRANCE COMPOSITION COMPRISING A FRAGRANCE COMPONET AND A NON-ODOROUS FRAGRANCE MODULATOR” (Coty Inc., priority 2020, published 2023)

Source text: Classical perfume contain a high % of ethanol to solubilize perfume raw materials.

Max Solubility in 83% Ethanol/17% Glucam solution: 0.431 g | Max Solubility in 88% Ethanol/12% Water solution: 0.273 g | solubility increase, glucam-containing vs classical ethanol solution: 57.8%
Structure (SMILES): C[C@@H]1CC[C@H]2C(C)(C)[C@H]3C[C@@]12CC[C@@]3(C)O [Cerdol Crystals, Cedrol Crystals]
